Source: US12180174B2, “A2-73 crystalline polymorph compositions of matter and methods of use thereof” (ANAVEX LIFE SCIENCES CORP., priority 2018, dated 2024)

Experiments:
[1] = test system: human A[342-expressing worms; assay: Thioflavine staining of Abeta42 aggregates in worms; format: in vivo, C. elegans; details: 80 μM, nine consecutive days; vs M9 medium control
From the text: This encouraged the inventors to further look into the functional consequences of autophagy induction, focusing on the impact of the degradative pathway on proteostasis in vivo. Therefore, human A[342-expressing worms characterized by a time-dependent paralysis were employed, due to the accumulation of A[342 oligomers and high molecular weight aggregates in body wall muscle cells; it is stressed here that A[342-expressing worms are not considered as a model for AD, but rather as an experimental model for general proteostasis stress and proteotoxicity, where protein aggregation in muscle cells leads do a clear-cut phenotype (here, paralysis). A1342 protein aggregates were stained in situ with thioflavine. […] The accumulation of A[342 aggregates in the muscle cells is known to lead to an enhanced paralysis of the worms over time. […] C. elegans were treated with the compound (or M9 buffer as control) up to 12 days and paralysis was quantified daily. […]
For analysis of paralysis rate, synchronous CL2006 nematodes were cultivated at 15° C. on plates seeded with HB101 E. coli re-suspended in M9 (control) or 100 μM and 50 μM ANAVEX2-73. […] Worms were mounted on 2% agar pads on a glass slide and confocal fluorescence microscopical analyses were performed with the LSM 710 (Zeiss, Oberkochen) laser scanning microscope.

[2] = test system: ULK1; assay: ULK1 serine 555 phosphorylation, Western blot; format: cell-based, human; details: 1 μM; HeLa cells
From the text: Activation of the serine/threonine protein kinase ULK1 (unc-51-like kinase 1) via phosphorylation at serine 555 indicates stimulation of the canonical autophagy pathway. […] It has to be mentioned that this activating ULK1 phosphorylation can be inhibited by mTOR as well as stimulated via AMPK kinase. Both are basal physiological sensors of nutritional conditions and key signal transducers of canonical autophagy stimulation. ULK1 is in fact the signal mediating the induction of the formation of the phagophore during the autophagy process and, therefore, a central promoter of autophagy. ULK1 itself functions in a complex with at least three protein partners: FI P200 (focal adhesion kinase family interacting protein of 200 kDa), ATG (autophagy-related protein) 13 (ATG13), and ATG101.
(§1) Cell culture and microscopy. HeLa and HEK293A cells were cultured in DMEM (Invitrogen, Carlsbad, CA, USA, 41965062) supplemented with active FBS (Life Technologies GmbH, Carlsbad, CA, USA, 10270106), 1×ABAM (Invitrogen, 15240-062) and 1 mM sodium pyruvate (Invitrogen, 1136-088). […] Proteins were detected by chemiluminescence using the Amersham Imager 600 (GE). Confocal fluorescence microscopical analyses of HEK293A cells stably expressing GFP-LC3B were performed with the laser scanning microscope LSM 710 (Zeiss, Oberkochen).

[3] = test system: muscarinic receptor; details: cited from earlier work
[4] = test system: C. elegans; assay: GFP-LGG-1 puncta in worms, confocal fluorescence microscopy; format: in vivo; details: plus/minus BafiA1; head regions of worms
From the text: To further substantiate this finding we used confocal fluorescence microscopy to directly visualize autophagosomal structures, as indicated by GFP-LGG-1-positive puncta. […] In fact, a significant increase was found; autophagic flux as observed in vivo is induced by ANAVEX2-73 by approx. 2.5-fold (FIG. 37B; The number of GFP-positive autophagosomal structures (indicated by arrowheads) were counted in three independent experiments and in each experiment in at least 8-11 respective head regions of worms), which is consistent with the Western blot analysis (FIG. 37A).
C. elegans strains, maintenance, methods. C. elegans were maintained according to standard procedures on nematode growth medium (NGM) plates seeded with HB101 E. coli. The following strains were employed in this study: GFP::LGG-1 (ex[PIggI::IggI::GFP]/pRF4; maintained at 20° C.; and the strain CL2006 (dvls2 [pCL12(unc-54/human A13 peptide 1-42)+pRF4]), maintained at 15° C.
For analysis of autophagic activity, synchronous nematodes expressing GFP::LGG-1 were cultivated at 20° C. At first day of adulthood, worms were transferred to 80 μM ANAVEX2-73 or control M9 liquid culture medium for 2 h and subsequently were treated with Bafilomycin AI or DMSO (control) for 4-6 h. Thereafter worms were lysed for Western blotting or analyzed by confocal fluorescence microscopy.

[5] = test system: HEK293 cells stably expressing a GFP-LC3B reporter construct; assay: GFP-LC3B puncta, confocal fluorescence microscopy; format: cell-based, human; details: 1 μM, BafiA1
Procedure: Next, the Western blot experiments were complemented by direct visualization of the extent of autophagosome appearance in HEK293 cells. To do so, ANAVEX2-73 (1 μM) was applied to HEK293 cells stably expressing a GFP-LC3B reporter construct. This cell model allows direct monitoring of the accumulation of LC3-I I-positive autophagosomal structures upon BafiAi supplementation by confocal fluorescence microscopy.
as §1, with “1136-088). After medium change, the cells were treated for 2 h with 10, 1, and 0.1 μM ANAVEX2-73 and PRE-084 (Tocris, Bristol, UK, 0589), respectively; ANAVEX2-73 was provided by ANAVEX Life Sciences Corp, New York, NY, USA.” for “1136-088).”
Confocal fluorescence microscopical analyses of HEK293A cells stably expressing GFP-LC3B were performed with the laser scanning microscope LSM 710 (Zeiss, Oberkochen).

CN(C)CC1CCOC1(c1ccccc1)c1ccccc1.Cl (centres unmarked) [ANAVEX2-73, tetrahydro-N,N-dimethyl-2,2-diphenyl-3-furanmethanamine hydrochloride]
number of thioflavine-positive A[342 aggregates [1]: reduced the number of thioflavine-positive A[342 aggregates | ULK1 serine 555 phosphorylation [2]: up to 2 fold | affinity for muscarinic receptor [3]: low micromolar range | induction of autophagic flux (GFP-LGG-1 puncta) [4]: approx. 2.5 fold | LC3-II-positive puncta and autophagic flux [5]: overall increased number of LC3-II-positive puncta and autophagic flux
